Laboratory results: ChEMBL document CHEMBL1148617, “Design, synthesis, and structure-activity relationships of 1-,3-,8-, and 9-substituted-9-deazaxanthines at the human A2B adenosine receptor” (J Med Chem, 2006)

Biological target: T1, Adenosine receptor A2a (Homo sapiens, UniProt P29274)
Experiment: Displacement of [3H]ZM-241385 from recombinant human adenosine A2A receptor expressed in HeLa cells at 0.1 uM

T1 sequence (P29274 whole entry): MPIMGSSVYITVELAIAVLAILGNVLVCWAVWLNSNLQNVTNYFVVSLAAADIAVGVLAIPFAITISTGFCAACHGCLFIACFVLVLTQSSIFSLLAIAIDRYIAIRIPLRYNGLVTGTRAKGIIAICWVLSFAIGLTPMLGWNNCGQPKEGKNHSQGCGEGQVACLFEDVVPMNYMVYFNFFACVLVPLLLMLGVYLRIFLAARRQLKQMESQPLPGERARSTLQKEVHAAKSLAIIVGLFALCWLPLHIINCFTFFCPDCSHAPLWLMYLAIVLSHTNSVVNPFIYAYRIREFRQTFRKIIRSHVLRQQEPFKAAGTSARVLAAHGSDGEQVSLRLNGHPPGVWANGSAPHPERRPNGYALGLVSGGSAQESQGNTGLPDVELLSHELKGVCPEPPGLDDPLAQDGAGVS

SMILES	inhibition [%]
CCCn1c(=O)c2[nH]c(-c3ccc(OCC(=O)c4c(NC(=O)O)n(C)c(=O)n(C)c4=O)cc3)cc2n(CCC)c1=O	61
COc1cc(-c2cc3c([nH]2)c(=O)n(C)c(=O)n3C)ccc1OCC(=O)NCc1ccc(Cl)cc1	23
CCCn1c(=O)c2[nH]c(-c3ccc(OCC(=O)O)cc3)c(Cl)c2n(CCC)c1=O	19
CCCn1c(=O)c2[nH]c(-c3ccc(OC(C)C(=O)Nc4ccc(OC)cc4)cc3)cc2n(CCC)c1=O (centres undefined)	57
Cn1c(=O)c2[nH]c(-c3ccc(OCC(=O)NCc4ccc(F)cc4)cc3)cc2n(C)c1=O	56
CCCn1c(=O)n(C)c(=O)c2[nH]c(-c3ccc(OCC(=O)Nc4ccccc4)cc3)cc21	40
CCCn1c(=O)c2[nH]c(-c3ccc(OCC(=O)Nc4ccc(CC(=O)O)cc4)cc3)cc2n(CCC)c1=O	28
COc1cc(-c2cc3c([nH]2)c(=O)n(C)c(=O)n3C)ccc1OCC(=O)Nc1ccc(Br)cc1	32
CCCn1c(=O)c2[nH]c(-c3ccc(OCC(=O)Nc4ccccc4F)cc3)c(Cl)c2n(CCC)c1=O	2
CCCn1c(=O)c2[nH]c(-c3ccc(OCC(=O)Nc4ccc(-c5ccccc5)cc4)cc3)cc2n(CCC)c1=O	36
CCCn1c(=O)c2[nH]c(-c3ccc(OCC(=O)Nc4ccc(OC)nc4)cc3)cc2n(C)c1=O	30
CC(Oc1ccc(-c2cc3c([nH]2)c(=O)n(C)c(=O)n3C)cc1)C(=O)Nc1ccc(Br)cc1 (centres undefined)	77
COc1cccc(CNC(=O)COc2ccc(-c3cc4c([nH]3)c(=O)n(C)c(=O)n4C)cc2)c1	11
CCCn1c(=O)c2[nH]c(-c3ccc(OCC(=O)Nc4ccc(Cl)cc4)cc3)cc2n(CCC)c1=O	61
CCCn1c(=O)c2[nH]c(-c3ccc(OCC(=O)Nc4ccc(C=O)cc4)cc3)cc2n(CCC)c1=O	13
CCCn1c(=O)c2[nH]c(-c3ccc(OCC(=O)Nc4ccc(Cl)cc4)cc3)c(Cl)c2n(CCC)c1=O	28
CCCn1c(=O)c2[nH]c(-c3ccc(OCC(=O)Nc4ccc(Br)cc4)cc3)c(Cl)c2n(CCC)c1=O	37

Biological target: T2, Adenosine receptor A2b (Homo sapiens) (UniProt P29275)
T2 sequence (whole entry): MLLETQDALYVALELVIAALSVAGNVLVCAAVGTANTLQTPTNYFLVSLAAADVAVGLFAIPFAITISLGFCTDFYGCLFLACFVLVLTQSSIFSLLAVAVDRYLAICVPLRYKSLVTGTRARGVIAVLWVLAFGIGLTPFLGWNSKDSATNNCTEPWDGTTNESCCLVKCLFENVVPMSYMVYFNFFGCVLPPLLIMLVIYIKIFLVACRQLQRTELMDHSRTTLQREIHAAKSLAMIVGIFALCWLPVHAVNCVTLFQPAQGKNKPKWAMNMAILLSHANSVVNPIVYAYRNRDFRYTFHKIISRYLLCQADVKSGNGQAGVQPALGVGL
Experiment: Displacement of [3H]DPCPX from recombinant human adenosine A2B receptor expressed in HEK293 cells at 0.01 uM

SMILES	inhibition [%]
CCCn1c(=O)c2[nH]c(-c3ccc(OCC(=O)c4c(NC(=O)O)n(C)c(=O)n(C)c4=O)cc3)cc2n(CCC)c1=O	24
COc1cc(-c2cc3c([nH]2)c(=O)n(C)c(=O)n3C)ccc1OCC(=O)NCc1ccc(Cl)cc1	5
CCCn1c(=O)c2[nH]c(-c3ccc(OC(C)C(=O)Nc4ccc(OC)cc4)cc3)cc2n(CCC)c1=O (centres undefined)	55
Cn1c(=O)c2[nH]c(-c3ccc(OCC(=O)NCc4ccc(F)cc4)cc3)cc2n(C)c1=O	36
CCCn1c(=O)n(C)c(=O)c2[nH]c(-c3ccc(OCC(=O)Nc4ccccc4)cc3)cc21	33
CCCn1c(=O)c2[nH]c(-c3ccc(OCC(=O)Nc4ccc(CC(=O)O)cc4)cc3)cc2n(CCC)c1=O	14
COc1cc(-c2cc3c([nH]2)c(=O)n(C)c(=O)n3C)ccc1OCC(=O)Nc1ccc(Br)cc1	15
CCCn1c(=O)c2[nH]c(-c3ccc(OCC(=O)Nc4ccccc4F)cc3)c(Cl)c2n(CCC)c1=O	5
CCCn1c(=O)c2[nH]c(-c3ccc(OCC(=O)Nc4ccc(-c5ccccc5)cc4)cc3)cc2n(CCC)c1=O	40
CCCn1c(=O)c2[nH]c(-c3ccc(OCC(=O)Nc4ccc(OC)nc4)cc3)cc2n(C)c1=O	57
CC(Oc1ccc(-c2cc3c([nH]2)c(=O)n(C)c(=O)n3C)cc1)C(=O)Nc1ccc(Br)cc1 (centres undefined)	89
COc1cccc(CNC(=O)COc2ccc(-c3cc4c([nH]3)c(=O)n(C)c(=O)n4C)cc2)c1	15
CCCn1c(=O)c2[nH]c(-c3ccc(OCC(=O)Nc4ccc(Cl)cc4)cc3)cc2n(CCC)c1=O	58
CCCn1c(=O)c2[nH]c(-c3ccc(OCC(=O)Nc4ccc(C=O)cc4)cc3)cc2n(CCC)c1=O	13
CCCn1c(=O)c2[nH]c(-c3ccc(OCC(=O)Nc4ccc(Cl)cc4)cc3)c(Cl)c2n(CCC)c1=O	17
CCCn1c(=O)c2[nH]c(-c3ccc(OCC(=O)Nc4ccc(Br)cc4)cc3)c(Cl)c2n(CCC)c1=O	15

Biological target: T2, Adenosine receptor A2b (Homo sapiens)
Experiment: Displacement of [3H]DPCPX from recombinant human adenosine A2B receptor expressed in HEK293 cells at 0.1 uM
Format: cell-based

SMILES	inhibition [%]
CCCn1c(=O)c2[nH]c(-c3ccc(OCC(=O)c4c(NC(=O)O)n(C)c(=O)n(C)c4=O)cc3)cc2n(CCC)c1=O	59
COc1cc(-c2cc3c([nH]2)c(=O)n(C)c(=O)n3C)ccc1OCC(=O)NCc1ccc(Cl)cc1	43
CCCn1c(=O)c2[nH]c(-c3ccc(OCC(=O)O)cc3)c(Cl)c2n(CCC)c1=O	36
CCCn1c(=O)c2[nH]c(-c3ccc(OC(C)C(=O)Nc4ccc(OC)cc4)cc3)cc2n(CCC)c1=O (centres undefined)	92
Cn1c(=O)c2[nH]c(-c3ccc(OCC(=O)NCc4ccc(F)cc4)cc3)cc2n(C)c1=O	95
CCCn1c(=O)n(C)c(=O)c2[nH]c(-c3ccc(OCC(=O)Nc4ccccc4)cc3)cc21	80
CCCn1c(=O)c2[nH]c(-c3ccc(OCC(=O)Nc4ccc(CC(=O)O)cc4)cc3)cc2n(CCC)c1=O	87
COc1cc(-c2cc3c([nH]2)c(=O)n(C)c(=O)n3C)ccc1OCC(=O)Nc1ccc(Br)cc1	78
CCCn1c(=O)c2[nH]c(-c3ccc(OCC(=O)Nc4ccccc4F)cc3)c(Cl)c2n(CCC)c1=O	30
CCCn1c(=O)c2[nH]c(-c3ccc(OCC(=O)Nc4ccc(-c5ccccc5)cc4)cc3)cc2n(CCC)c1=O	80
CCCn1c(=O)c2[nH]c(-c3ccc(OCC(=O)Nc4ccc(OC)nc4)cc3)cc2n(C)c1=O	99
CC(Oc1ccc(-c2cc3c([nH]2)c(=O)n(C)c(=O)n3C)cc1)C(=O)Nc1ccc(Br)cc1 (centres undefined)	93
COc1cccc(CNC(=O)COc2ccc(-c3cc4c([nH]3)c(=O)n(C)c(=O)n4C)cc2)c1	61
CCCn1c(=O)c2[nH]c(-c3ccc(OCC(=O)Nc4ccc(Cl)cc4)cc3)cc2n(CCC)c1=O	95
CCCn1c(=O)c2[nH]c(-c3ccc(OCC(=O)Nc4ccc(C=O)cc4)cc3)cc2n(CCC)c1=O	67
CCCn1c(=O)c2[nH]c(-c3ccc(OCC(=O)Nc4ccc(Cl)cc4)cc3)c(Cl)c2n(CCC)c1=O	80
CCCn1c(=O)c2[nH]c(-c3ccc(OCC(=O)Nc4ccc(Br)cc4)cc3)c(Cl)c2n(CCC)c1=O	73

Biological target: T3, Adenosine receptor A2b (Homo sapiens, UniProt P29275)
T3 sequence (P29275 whole entry): T2 sequence (whole entry)
Experiment: not given

SMILES	Ki [nM]
CCCn1c(=O)c2[nH]c(-c3ccc(OCC(=O)c4c(NC(=O)O)n(C)c(=O)n(C)c4=O)cc3)cc2n(CCC)c1=O	100
COc1cc(-c2cc3c([nH]2)c(=O)n(C)c(=O)n3C)ccc1OCC(=O)NCc1ccc(Cl)cc1	186
CCCn1c(=O)c2[nH]c(-c3ccc(OCC(=O)O)cc3)c(Cl)c2n(CCC)c1=O	158
CCCn1c(=O)c2[nH]c(-c3ccc(OC(C)C(=O)Nc4ccc(OC)cc4)cc3)cc2n(CCC)c1=O (centres undefined)	5.13
Cn1c(=O)c2[nH]c(-c3ccc(OCC(=O)NCc4ccc(F)cc4)cc3)cc2n(C)c1=O	17
CCCn1c(=O)n(C)c(=O)c2[nH]c(-c3ccc(OCC(=O)Nc4ccccc4)cc3)cc21	21.4
CCCn1c(=O)c2[nH]c(-c3ccc(OCC(=O)Nc4ccc(CC(=O)O)cc4)cc3)cc2n(CCC)c1=O	33.9
COc1cc(-c2cc3c([nH]2)c(=O)n(C)c(=O)n3C)ccc1OCC(=O)Nc1ccc(Br)cc1	38.9
CCCn1c(=O)c2[nH]c(-c3ccc(OCC(=O)Nc4ccccc4F)cc3)c(Cl)c2n(CCC)c1=O	141
CCCn1c(=O)c2[nH]c(-c3ccc(OCC(=O)Nc4ccc(-c5ccccc5)cc4)cc3)cc2n(CCC)c1=O	16.2
CCCn1c(=O)c2[nH]c(-c3ccc(OCC(=O)Nc4ccc(OC)nc4)cc3)cc2n(C)c1=O	3.16
CC(Oc1ccc(-c2cc3c([nH]2)c(=O)n(C)c(=O)n3C)cc1)C(=O)Nc1ccc(Br)cc1 (centres undefined)	1.55
COc1cccc(CNC(=O)COc2ccc(-c3cc4c([nH]3)c(=O)n(C)c(=O)n4C)cc2)c1	51.3
CCCn1c(=O)c2[nH]c(-c3ccc(OCC(=O)Nc4ccc(Cl)cc4)cc3)cc2n(CCC)c1=O	3.16
CCCn1c(=O)c2[nH]c(-c3ccc(OCC(=O)Nc4ccc(C=O)cc4)cc3)cc2n(CCC)c1=O	63.1
CCCn1c(=O)c2[nH]c(-c3ccc(OCC(=O)Nc4ccc(Cl)cc4)cc3)c(Cl)c2n(CCC)c1=O	22.9
CCCn1c(=O)c2[nH]c(-c3ccc(OCC(=O)Nc4ccc(Br)cc4)cc3)c(Cl)c2n(CCC)c1=O	24.5

Biological target: T1, Adenosine receptor A2a
Experiment: not given

SMILES	Ki [nM]
CCCn1c(=O)c2[nH]c(-c3ccc(OCC(=O)c4c(NC(=O)O)n(C)c(=O)n(C)c4=O)cc3)cc2n(CCC)c1=O	79.4
COc1cc(-c2cc3c([nH]2)c(=O)n(C)c(=O)n3C)ccc1OCC(=O)NCc1ccc(Cl)cc1	158
CCCn1c(=O)c2[nH]c(-c3ccc(OCC(=O)O)cc3)c(Cl)c2n(CCC)c1=O	398
CCCn1c(=O)c2[nH]c(-c3ccc(OC(C)C(=O)Nc4ccc(OC)cc4)cc3)cc2n(CCC)c1=O (centres undefined)	38.9
Cn1c(=O)c2[nH]c(-c3ccc(OCC(=O)NCc4ccc(F)cc4)cc3)cc2n(C)c1=O	43.7
CCCn1c(=O)n(C)c(=O)c2[nH]c(-c3ccc(OCC(=O)Nc4ccccc4)cc3)cc21	195
CCCn1c(=O)c2[nH]c(-c3ccc(OCC(=O)Nc4ccc(CC(=O)O)cc4)cc3)cc2n(CCC)c1=O	224
COc1cc(-c2cc3c([nH]2)c(=O)n(C)c(=O)n3C)ccc1OCC(=O)Nc1ccc(Br)cc1	81.3
CCCn1c(=O)c2[nH]c(-c3ccc(OCC(=O)Nc4ccccc4F)cc3)c(Cl)c2n(CCC)c1=O	724
CCCn1c(=O)c2[nH]c(-c3ccc(OCC(=O)Nc4ccc(-c5ccccc5)cc4)cc3)cc2n(CCC)c1=O	69.2
CCCn1c(=O)c2[nH]c(-c3ccc(OCC(=O)Nc4ccc(OC)nc4)cc3)cc2n(C)c1=O	132
CC(Oc1ccc(-c2cc3c([nH]2)c(=O)n(C)c(=O)n3C)cc1)C(=O)Nc1ccc(Br)cc1 (centres undefined)	26.9
COc1cccc(CNC(=O)COc2ccc(-c3cc4c([nH]3)c(=O)n(C)c(=O)n4C)cc2)c1	331
CCCn1c(=O)c2[nH]c(-c3ccc(OCC(=O)Nc4ccc(Cl)cc4)cc3)cc2n(CCC)c1=O	31.6
CCCn1c(=O)c2[nH]c(-c3ccc(OCC(=O)Nc4ccc(C=O)cc4)cc3)cc2n(CCC)c1=O	490
CCCn1c(=O)c2[nH]c(-c3ccc(OCC(=O)Nc4ccc(Cl)cc4)cc3)c(Cl)c2n(CCC)c1=O	89.1
CCCn1c(=O)c2[nH]c(-c3ccc(OCC(=O)Nc4ccc(Br)cc4)cc3)c(Cl)c2n(CCC)c1=O	126
